{
  "source": "patent US6177475A",
  "about": "“Methods of using integrin modulators for treatment of inflammation” (priority 1997, dated 2001)",
  "key": {"[1]": {"test_system": "LFA-1", "test": "TPA-induced homotypic adhesion (aggregation) of peripheral blood leukocytes", "format": "cell-based, human", "settings": "~100 micromoles per liter Ajoene", "method": "Normal human peripheral blood leukocytes (PBLS) were cultured for 5 days without stimulation in complete RPMI medium (Sigma Chemical Co., St. Louis, Mo.), washed, and resuspended at 9×10^6 cells/ml in the same medium. Fifty microliters of the cells were added in duplicate to wells containing 100 microliters of an Ajoene solution (50 micrograms/ml),anti-LFA-1 antibody (H52) solution (20 micrograms/ml), or vehicle controls. The plate was then incubated for 30 min at 37° C. before adding to each well 50 microliters of a solution of 12-O-tetradecanoyl 4-β-phorbol 13-acetate (TPA) to the final concentration of 125 ng/ml). The plate was incubated for 45 min at 37° C., followed by additional 10-min incubation at room temperature on a shaking platform. The cells were allowed to settle, and adhesion was quantitated by counting the number of free cells in random high-power fields in the duplicate wells. Following incubation with TPA, 75 to 90% of cells are typically found in large aggregates as a result of LFA-1 upregulation. TPA induced a 90% aggregation in PBLs that were preincubated with vehicle controls. […] This example provides conclusive evidence that, in addition to GP IIb/IIIa and VIA-4, Ajoene modulates the integrin LFA-1. […]"}, "[2]": {"test_system": "111In-labeled neutrophils", "test": "Neutrophil recruitment to inflamed joints in rat adjuvant arthritis", "format": "in vivo", "settings": "50 mg/kg i.v.; for Accumulation of 111In-labeled Neutrophils (mean ± SEM): 2 h", "method": "Rat adjuvant arthritis is characterized by integrin-mediated migration of ^51 Cr-labeled monocytes and ^111 In-labeled neutrophils into the inflamed synovium, which attains maximum between days 14 and 21 after the immunization. This model of human rheumatoid arthritis was used to assess in vivo effects of Ajoene on integrins that are known to be modulated by Ajoene in vitro.\nAdjuvant arthritis was induced in 6-8 week old inbred male Lewis rats by immunization on the lower back with 0.5 mg Mycobacterium butyricum (Difco Laboratories, Inc., Detroit, Mich.) in 0.05 ml mineral oil in two sites subcutaneously at the base of the tail. All the animals developed polyarticular arthritis between days 11 and 13 after immunization. For clinical scoring, 0-4 points were assigned per limb and tail, based on the severity of erythema, swelling, and limitation of movement (the maximal possible score was 20).\nRat blood monocytes and neutrophils for migration studies were obtained by the hydroxyethyl starch (HES) exchange transfusion technique. The total blood volume of a donor rat was exchanged using 50 ml 6% HES solution in saline (DuPont Chemical Co., Dorval, Canada). After recovery of 40-45 ml blood/HES perfusate, the red cells were allowed to sediment (1 g) and the leukocyte-rich plasma was harvested. The leukocytes were recovered by centrifugation, resuspended in calcium-magnesium-free Tyrode's solution supplemented with 10% platelet-poor plasma (TS-PPP), and centrifuged in a discontinuous 63%/74% gradient of isotonic Percoll (Pharmacia Fine Chemicals, Dorval, Canada). The top layer, containing mononuclear cells (MN), and the cells in the 63%/74% interface, containing neutrophils, were collected, washed, and resuspended in TS-PPP. To obtain purified monocytes, the osmolality of the MN suspension was increased by adding 9% NaCl, and the suspension was centrifuged in a 40%/55%/58% Percoll gradient; monocytes were harvested at 40%/55% and […] interfaces, washed, and resuspended in TS-PPP.\nThereafter, monocytes (10^7 cells/ml) were labeled with 75 microCurie/ml of Na2^51 CrO4 (Amersham, Oakville, Canada) at 37° C. for 30 min. Neutrophils (10^7 cells/ml) were labeled with 1 microCurie/ml of ^111 In oxine (Amersham) for 10 min. Both populations were washed to remove excess labeled material and checked for viability and purity. The viability of either cell population used in the experiments was in excess of 95% (as double-checked by Trypan blue exclusion and neutral red staining). The separation procedure described above ordinarily produced populations that contained no less than 90% monocytes and no less than 95% neutrophils. […]"}, "[3]": {"test_system": "MOLT-4 cells / syncytiotrophoblasts", "test": "Adhesion of uninfected MOLT-4 clone 8 cells to syncytiotrophoblasts", "format": "cell-based, human", "source_text": "Human fetal placental epithelial cells, known as syncytiotrophoblasts, were organized in a monolayer and exposed to HIV-infected lymphocytic cells and, as a negative control, to uninfected cells of the same type. This experimental system, closely simulating the actual conditions under which syncytiotrophoblasts would be exposed to HIV-infected cells in vivo, was used to assess integrin-modulating effects of Ajoene.\n(§1) MOLT-4 clone 8 cells were labeled with calcein-AM, pretreated with different concentrations of Ajoene (0-200 micromoles per liter) and incubated with cultured term syncytiotrophoblast cells at 37° C. for one hour in the presence of Ajoene. Adhesion was measured directly as fluorescence units after background correction. Controls included measuring adhesion in the presence of the appropriate carrier solvent."}, "[4]": {"test_system": "MT-4 cells", "format": "cell-based"}, "[5]": {"test_system": "WI-38 cells", "format": "cell-based, human"}, "[6]": {"test_system": "MOLT-4 cells and syncytiotrophoblasts", "format": "cell-based, human", "method": "as §1\nIn order to assess the ability of Ajoene to inhibit lymphocyte-mediated HIV infection of syncytiotrophoblasts, HIV-1LBi -infected MOLT-4 cells were added to adherent cultures of uninfected syncytiotrophoblasts in the presence and absence of Ajoene. Various additional control conditions were also established. First, some wells received filtered (0.45 micrometer) supernatant of cell-free HIV from infected cell cultures. Yet other negative controls included syncytiotrophoblasts cultured alone and syncytiotrophoblasts cultured with uninfected MOLT-4 cells. After 24 hours, the cocultures were washed to removed unbound lymphocytes, fixed, permeabilized, stained for viral core antigens (p24 and p55), and viewed under a fluorescence microscope."}},
  "data": [
    {"smiles": "C=CCSSC=CC[S+]([O-])CC=C", "note": "(stereo not drawn) [Ajoene, 4,5,9-trithiadodeca-1,6,11-triene-9-oxide]", "values": [
      {"measurement": "inhibition of TPA-induced homotypic adhesion of PBLs", "setting": "[1]", "value": "completely inhibited"},
      {"measurement": "inhibition of neutrophil recruitment to the talar joints", "setting": "[2]", "value": "~ 50%"},
      {"measurement": "Accumulation of 111In-labeled Neutrophils (mean ± SEM)", "setting": "[2]; talar joint, P < 0.001", "value": "15,052 cpm per sample"},
      {"measurement": "Accumulation of 111In-labeled Neutrophils (mean ± SEM)", "setting": "[2]; tarsal joint, P = 0.085", "value": "7,353 cpm per sample"},
      {"measurement": "Accumulation of 111In-labeled Neutrophils (mean ± SEM)", "setting": "[2]; vertebral joints, P = 0.089", "value": "3,658 cpm per sample"},
      {"measurement": "inhibition of adhesion of MOLT-4 cells to syncytiotrophoblasts", "setting": "[3]; 200 micromoles per liter", "value": 100, "unit": "%"},
      {"measurement": "IC50", "setting": "[3]; Homo sapiens, MOLT-4, 1 hour, 37° C., cells not infected with HIV", "value": 60, "unit": "µM"},
      {"measurement": "toxic effects on the cells", "setting": "[4]", "value": "without any toxic effects on the cells"},
      {"measurement": "toxicity", "setting": "[5]", "value": "no detectable toxicity"},
      {"measurement": "toxic effects to the cells", "setting": "[6]; HIV infection assay (lymphocyte-mediated), 200 micromoles per liter", "value": "without toxic effects to the cells"},
      {"measurement": "toxic effects on cells", "setting": "[6]; adhesion assay, up to 200 micromoles per liter", "value": "Without any toxic effects on cells"},
      {"measurement": "toxic effects in cell-free HIV infection", "setting": "[6]; cell-free HIV, 200 micromoles per liter and lower concentrations tested", "value": "without toxic effects"}
    ]}
  ]
}
